Experimental data taken from patent US12011432B2, “Method of modulating ribonucleotide reductase” (CASE WESTERN RESERVE UNIVERSITY, priority 2018, dated 2024).

Legend:
[1] = tested on: Human pancreatic cancer cells (Pancl); test: Cancer cell line growth inhibition assay (DNA content); assay type: cell-based; design: inhibition of growth of Pancl cells: dose or concentration left out as unconfirmed; details: for IC50: Homo sapiens, Pancreatic cancer cell, 72 h, continuous exposure for three days; for IC50 / activity/potency against growth of Pancl cells (in words): DNA content per well; for inhibition of growth of Pancl cells / activity/potency against growth of Pancl cells (in words): three days
Description: Growth inhibition assays were performed in the Translational Research Shared Resource of the Case Comprehensive Cancer Centre. Human pancreatic cancer cells (Pancl) were maintained in standard growth medium consisting of (RPMI1640+10% FBS+2 mM glutamine+100 U/mL penicillin, and […] streptomycin). Cells were monitored and shown to be negative for mycoplasma contamination using the Mycoplasma Detection kit (MycoAlert™, Lonza, Basel, Switzerland). For growth inhibition assays, cells were harvested by trypsinisation and seeded into 96-well tissue culture plates at 2500 cells/mL. The following day, triplicate wells were treated with an appropriate volume of 5x-inhibitor-containing medium. The cells were cultured for 3 additional days at 37° C. in a 5% CO2 humidified incubator. Cell growth was assessed by measuring total DNA content per well using an adaptation of the method of Labarca and Paigen.

blood progenitor cells = details: previously shown, cited from earlier work

**Q.** Which IC50 [1] does the source give for `O=C(N/N=C/c1cccnc1)c1c(O)ccc2ccccc12` [TP12, (E)-2-Hydroxy-N′-(Pyridin-3-Ylmethylene)-1-Naphthohydrazide] here?
**A.** The IC50 was greater than 10000 nM.

**Q.** What about the “inhibition of growth of Pancl cells” value [1] of the same compound?
**A.** Its value is “did not inhibit the growth”.

**Q.** What about the melting point of the same compound?
**A.** The melting point was 202.8 to 204.5 °C.

**Q.** For `O=C(NNC(=O)c1c(O)ccc2ccccc12)c1cccnc1` [TP11, N′-(2-Hydroxy-1-Naphthoyl)-Nicotinohydrazide], which IC50 [1] is on record?
**A.** Its IC50 is greater than 10000 nM.

**Q.** What about the “inhibition of growth of Pancl cells” value [1] of the same compound?
**A.** Its value is “did not inhibit the growth”.

**Q.** What about the melting point of the same compound?
**A.** The melting point was 227.1 to 228.6 °C.

**Q.** What does the source list for `O=C(NNC(=O)c1ccccc1O)c1cccnc1` [TP13, N′-(2-Hydroxybenzoyl)-Nicotinohydrazide]?
**A.** IC50 [1]: > 10000 nM; inhibition of growth of Pancl cells [1]: did not inhibit the growth; melting point: 216.6 to 217.7 °C

**Q.** With `O=C(N/N=C/c1c(O)ccc2ccccc12)c1ccccc1O` [TP8, (E)-2-Hydroxy-N′-((2-Hydroxynaphthalen-1-Yl)Methylene)-Benzohydrazide] as the compound, how does the IC50 [1] read?
**A.** The IC50 was less than 1500 nM.

**Q.** And the melting point?
**A.** Its melting point is 223.8 °C.

**Q.** What about the “effectiveness against blood progenitor cells versus cancer cell lines” value (blood progenitor cells) of the same compound?
**A.** Its value is “much less effective”.

**Q.** And the “therapeutic index compared with gemcitabine” value (blood progenitor cells; same cell-cell comparison)?
**A.** Its value is “higher therapeutic index than gemcitabine”.

**Q.** Which IC50 [1] does the source give for `COc1ccc(-c2cnc(-c3ccccc3O)s2)cc1` [TP9, 2-(5-(4-Methoxyphenyl)Thiazol-2-Yl)-Phenol] here?
**A.** The IC50 was greater than 10000 nM.

**Q.** What about the “inhibition of growth of Pancl cells” value [1] of the same compound?
**A.** Its value is “did not inhibit the growth”.

**Q.** And the “activity/potency against growth of Pancl cells (in words)” value [1]?
**A.** The value was “ineffective”.

**Q.** What about the melting point of the same compound?
**A.** The melting point was 95.2 to 96.8 °C.

**Q.** With `O=C(N/N=C/c1cc(-c2ccsc2)ccc1O)c1ccccc1O` [TP3, (E)-2-Hydroxy-N′-(2-Hydroxy-5-(Thiophen-3-Yl)-Benzylidene)-Benzohydrazide] as the compound, how does the IC50 [1] read?
**A.** The IC50 was 2000 to 3000 nM.

**Q.** What about the melting point of the same compound?
**A.** Its melting point is 282.9 to 284.6 °C.

**Q.** Which IC50 [1] does the source give for `COc1ccc(-c2ccccc2)c(/C=N/NC(=O)c2ccccc2O)c1O` [TP5, (E)-2-Hydroxy-N′-((3-Hydroxy-4-Methoxy-11,1′-Biphenyll-2-Yl)Methylene)-Benzohydrazide] here?
**A.** The IC50 was less than 1500 nM.

**Q.** What about the melting point of the same compound?
**A.** Its melting point is 257.9 to 259.4 °C.

**Q.** With `COc1ccc(-c2ccoc2)c(/C=N/NC(=O)c2ccccc2O)c1O` [TP4, (E)-N′-(6-(Furan-3-Yl)-2-Hydroxy-3-Methoxybenzylidene)-2-Hydroxybenzohydrazide] as the compound, how does the IC50 [1] read?
**A.** The IC50 was less than 1500 nM.

**Q.** What about the melting point of the same compound?
**A.** Its melting point is 228.3 °C (dec.).

**Q.** For `O=C1Nc2ccccc2/C1=N\NC(=O)c1ccccc1O` [TP1, (E)-2-Hydroxy-N′-(2-Oxoindolin-3-Ylidene)Benzohydrazide], which IC50 [1] is on record?
**A.** Its IC50 is greater than 10000 nM.

**Q.** And the “inhibition of growth of Pancl cells” value [1]?
**A.** The value was “did not inhibit the growth”.

**Q.** Which IC50 [1] does the source give for `O=C(N/N=C/c1c(O)ccc2ccccc12)c1ccc(-n2ccccc2=O)cc1` [TP10, (E)-N′-((2-Hydroxynaphthalen-1-Yl)Methylene)-4-(2-Oxopyridin-1(2H)-Yl)-Benzohydrazide] here?
**A.** Its IC50 is 2000 to 3000 nM.

**Q.** And the melting point?
**A.** The melting point was 258.6 °C.

**Q.** What does the source list for `O=C(N/N=C/c1cc(-c2ccccc2)ccc1O)c1ccccc1O` [TP2]?
**A.** IC50 [1]: 2000 to 3000 nM; melting point: 273.5 to 274.9 °C

**Q.** Which IC50 [1] does the source give for `COc1ccc(-c2ccsc2)c(/C=N/NC(=O)c2ccccc2O)c1O` [TP6, (E)-2-Hydroxy-N′-(2-Hydroxy-3-Methoxy-6-(Thiophen-3-Yl)Benzylidene)-Benzohydrazide] here?
**A.** The IC50 was less than 1500 nM.

**Q.** And the “decrease in IC50 over the lead compound NSAH (TP8)” value ([1]; Pancl cells)?
**A.** The value was greater than 2 fold.

**Q.** And the “activity/potency against growth of Pancl cells (in words)” value [1]?
**A.** Its value is “greatest potency”.

**Q.** And the melting point?
**A.** The melting point was 229.5 °C.

**Q.** Which results are given for `Nc1ncnc2c1ncn2-c1ccc(/C=N/NC(=O)c2ccccc2O)cc1` [TP7, (E)-N′-(4-(6-Amino-9H-Purin-9-Yl)Benzylidene)-2-Hydroxybenzohydrazide]?
**A.** IC50 [1]: > 10000 nM; inhibition of growth of Pancl cells [1]: did not inhibit the growth; melting point: 229.5 °C
